Measured values from patent US9133257B2, “Antimicrobial peptides and derived metapeptides” (priority 1998, dated 2015).
Ends that are not written are not given here.

Legend:
[1] = tested on: Candida Lusitaniae ATCC 42720; parameters: key: R, resistant; S, sensitive; settings: control strain ATCC 42720; cited from earlier work
[2] = tested on: Candida Albicans ATCC 36082; parameters: key: R, resistant; S, sensitive; settings: control strain ATCC 36082; cited from earlier work
[3] = tested on: Candida Krusei ATCC 32672; parameters: key: R, resistant; S, sensitive; settings: control strain ATCC 32672; cited from earlier work
[4] = tested on: Pseudomonas aeruginosa ATCC 17468; parameters: key: R, resistant; S, sensitive; settings: control strain ATCC 17468; cited from earlier work
[5] = tested on: Escherichia coli ATCC 43827; parameters: key: R, resistant; S, sensitive; settings: control strain ATCC 43827; cited from earlier work
[6] = tested on: Staphylococus Aureus ATCC 27217; parameters: key: R, resistant; S, sensitive; settings: control strain ATCC 27217; cited from earlier work
[7] = tested on: Enterococcus Faecalis ATCC 47707; parameters: key: R, resistant; S, sensitive; settings: control strain ATCC 47707; cited from earlier work
[8] = tested on: Streptococcus pneumonia ATCC 35088; parameters: key: R, resistant; S, sensitive; settings: control strain ATCC 35088; cited from earlier work
a spectrum of pathogens = test: antimicrobial spectra in vitro (radial diffusion assay)
relevant pathogens = test: microbicidal activity in vitro at pH 5.5 vs 7.2; assay type: cell-based
Description: Our preliminary data provide a basis for our central discovery that PMPs have specific, independent determinants responsible for direct antimicrobial activities and potentiation of neutrophil antimicrobial functions. We have shown that these determinants can be isolated, optimized, and utilized to design novel mosaic peptides with selective antimicrobial properties. With a goal of designing novel therapeutics that have potent and selective antimicrobial functions and low toxicity, optimizing the activities of the distinct structural determinants in such peptides is essential.
Controls contain buffer alone or non-antimicrobial proteins and organism as above. Mixtures are incubated at 37° C. for up to 48 hours, after which aliquots are quantitatively cultured and incubated for 24 to 48 hours. Killing is expressed as decrease in logarithm10 surviving CFU/ml. The limit of sensitivity in microbicidal assays is considered to be a 1 log reduction in viable cells.

S. aureus strain 6850 = test: flow cytometry of membrane depolarization (DiOC5), permeabilization (PI) and killing, PMP-susceptible strain; assay type: cell-based
Description: (§1) Our recent studies have provided new evidence that PMPs differ in mechanisms of action from those of other antimicrobial peptides. We used flow cytometry to study the mechanisms of action of PMPs against S. aureus strain pair 6850 (PMP^S) and JB-1 (PMP^R) in vitro. Strain JB-1 is a menadione auxotroph of parent strain 6850, and has a decreased transcytoplasmic membrane potential (ΔΨ). We used the fluorescent probes dioxycarbocyanine (DiOC5) and propidium iodide (PI) to quantify the effects of PMP-2 and human defensin NP-1 (hNP-1) on ΔΨ and permeability, respectively. […] Menadione reconstituted the PMP^R strain ΔΨ to a level equivalent to the PMP^S strain. This was associated with increased depolarization, permeabilization, and killing of the PMP^R strain due to PMP-2. Therefore, the mechanism of PMP-2 action involves rapid, pH-dependent membrane permeabilization with membrane depolarization. These effects were different from hNP-1, or the cationic antibacterial agents protamine or gentamicin.
Flow cytometry can also be used to examine kinetics and mechanisms of the action of the peptides on bacterial membrane integrity and energetics. Peptides which differ in activity or specificity for their ability to depolarize and/or permeabilize microbial membranes can also be compared by analysis of membrane depolarization, and permeabilization. DiOC5 is a charged lipophilic dye which partitions into the cytoplasm, and is dependent on intact Δψ for intracellular retention. Organisms prepared as above are labeled in darkness for 30 minutes at about 20° C. in PBS containing 0.05 μM DiOC5. Organisms are resuspended to a concentration of 5×10^8 CFU/ml in K^+MEM containing an individual peptide, and incubated at 37° C. For flow cytometry, organisms are washed, sonicated, counted, and resuspended in K^+MEM buffer. Reductions in mean DiOC5 fluorescence relative to controls are interpreted to represent loss of DiOCs, indicating membrane depolarization. Positive control cells exposed to valinomycin, as well as control cells not exposed to any peptides, are analyzed for DiOC5 fluorescence in parallel.
Propidium iodide is excluded from cells with normal membrane integrity, but enters cells permealized to molecules ≧2 nm in diameter, and can be stimulated to emit fluorescence at >620 nm. […] Cells are washed in fresh K^+MEM, sonicated, counted, and resuspended in KIMEM buffer containing 20 μM propidium iodide. Control cells exposed to ethanol (positive control for permeabilization) are assessed for propidium iodide uptake in parallel. Increases in mean propidium iodide fluorescence relative to control cells are interpreted to indicate increases in permeability.

[9] = tested on: Salmonella typhimurium strain 14028; test: susceptibility of Salmonella typhimurium strains; assay type: cell-based; settings: parental strain 14028
S. aureus strain JB-1 = test: flow cytometry of membrane depolarization (DiOC5), permeabilization (PI) and killing, PMP-resistant strain; assay type: cell-based; settings: PMP-resistant strain JB-1 compared with PMP-susceptible strain
Description: as §1, with “This was associated with increased depolarization, permeabilization, and killing of the PMP^R strain due to PMP-2. Therefore, the mechanism of PMP-2 action involves rapid, pH-dependent membrane permeabilization with membrane depolarization. These effects were different from hNP-1, or the cationic antibacterial agents protamine or gentamicin.” left out
Flow cytometry can also be used to examine kinetics and mechanisms of the action of the peptides on bacterial membrane integrity and energetics. […] For flow cytometry, organisms are washed, sonicated, counted, and resuspended in K^+MEM buffer. Reductions in mean DiOC5 fluorescence relative to controls are interpreted to represent loss of DiOCs, indicating membrane depolarization. Positive control cells exposed to valinomycin, as well as control cells not exposed to any peptides, are analyzed for DiOC5 fluorescence in parallel.
Propidium iodide is excluded from cells with normal membrane integrity, but enters cells permealized to molecules ≧2 nm in diameter, and can be stimulated to emit fluorescence at >620 nm. […]

[10] = tested on: vascular endothelial cells; assay type: cell-based, human
Description: (§2) The majority of known mammalian antimicrobial peptides have been localized within leukocytes (e.g., defensins), or secreted onto epithelial surfaces such as intestinal lumen or tracheal epithelium (e.g., cryptdins, tracheal antimicrobial peptide). Prohibitive levels of mammalian cell toxicity have been noted with many of these peptides when they have been tested as antimicrobial therapeutics. In contrast, PMPs exert potent in vitro microbicidal activity against a broad spectrum of bacteria and fungi under physiological conditions that exist in the intravascular space. Several PMPs are released from platelets stimulated with agonists associated with infection. Therefore, in response to tissue injury, PMPs are likely released into the mammalian bloodstream at localized sites of infection. […] These potencies compare favorably to potent conventional antimicrobial agents such as aminoglycosides or amphotericin B.
Endothelial cell injury due to peptides is measured using a standard chromium (^51Cr) release assay, described in Filler, S. G., et al., “Candida stimulates endothelial cell eicosanoid production” J Infect Dis. […] After a predetermined incubation period, the medium is aspirated and the amount of ^51Cr released into the medium is measured by scintillation. […]

human neutrophils [11] = test: neutrophil phagocytosis of S. aureus pre-exposed to sub-lethal PMP-2 or serum; assay type: cell-based; settings: organisms pre-exposed 30 minutes to sub-lethal concentrations, mixed with neutrophils (20:1), 37° C., 2 hours
Method: (§3) We have initially studied the influence of PMP-2 on in vitro neutrophil phagocytosis and intracellular killing of S. aureus. In our preliminary experiments, a heterologous system was established employing human neutrophils, pooled normal human serum, or crude rabbit PMP-2. Organisms (5×10^7/ml) were pre-exposed to sub-lethal concentrations of serum or PMP-2 for 30 minutes, washed, mixed with neutrophils (20:1), and incubated at 37° C. for 2 hours. We observed a significant increase in phagocytosis of S. aureus when pre-exposed to PMP-2 (mean organisms/neutrophil=11.2), as compared with serum (mean organisms/neutrophil=6.4) or buffer control (mean organisms/neutrophil=3.7; P<0.05 for PMP-2 vs. serum or buffer). To quantify intracellular killing, neutrophils were lysed, and aliquots quantitatively cultured to enumerate surviving S. aureus cells.

human neutrophils [12] = test: intracellular killing of S. aureus by neutrophils; assay type: cell-based; settings: 2 hour time point, neutrophils lysed, quantitative culture
Method: as §3

S. aureus = test: transmission electron microscopy of bacterial cells after peptide exposure; assay type: cell-based; settings: 10 μg/ml, as little as 15-60 min
Description: PMPs and tPMPs target and disrupt microbial cytoplasmic membranes. We have investigated morphologic consequences of rabbit PMP-2 and tPMP-1 exposure to bacterial cells, protoplasts, and lipid bilayers in vitro using transmission electron microscopy (TEM) and biophysical techniques. […] Ultrastructural damage precedes detectable bactericidal and bacteriolytic effects. […] It is important to reiterate that PMPs are likely released into the bloodstream in response to infection, such that they presumably accumulate locally at sites of infection to act directly and indirectly in antimicrobial host defense.

human erythrocytes = assay type: cell-based
Description: as §2
Four-percent (vol/vol) of washed human erythrocytes (in PBS alone, or in PBS plus 10% heat-inactivated PNHS are incubated with selected peptides ranging in concentration up to 100 times greater than geometric mean MICs. After 24 hours of incubation at 37° C., erythrocyte permeabilization and hemolysis are determined spectrophotometrically. Permeabilization and hemolysis will be compared to buffers alone, and with a triton X-100 control (100% hemolysis).

C[C@@H]1[C@H](O)[C@@H](C)/C=C/C=C/C=C/C=C/C=C/C=C/C=C/[C@H](O[C@@H]2O[C@H](C)[C@@H](O)[C@H](N)[C@@H]2O)C[C@@H]2O[C@](O)(C[C@@H](O)C[C@@H](O)[C@H](O)CC[C@@H](O)C[C@@H](O)CC(=O)O[C@H]1C)C[C@H](O)[C@H]2C(=O)O [Amb, amphotericin B]
Antibiotic Resistance Phenotype [1]: R | Antibiotic Resistance Phenotype [2]: S | Antibiotic Resistance Phenotype [3]: S

OC(Cn1cncn1)(Cn1cncn1)c1ccc(F)cc1F [Flu, fluconazole]
Antibiotic Resistance Phenotype [1]: R | Antibiotic Resistance Phenotype [2]: S | Antibiotic Resistance Phenotype [3]: R

CN[C@H](CC(C)C)C(=O)N[C@H]1C(=O)N[C@@H](CC(N)=O)C(=O)N[C@H]2C(=O)N[C@H]3C(=O)N[C@H](C(=O)N[C@H](C(=O)O)c4cc(O)cc(O)c4-c4cc3ccc4O)[C@H](O)c3ccc(c(Cl)c3)Oc3cc2cc(c3O[C@@H]2O[C@H](CO)[C@@H](O)[C@H](O)[C@H]2O[C@H]2C[C@](C)(N)[C@H](O)[C@H](C)O2)Oc2ccc(cc2Cl)[C@H]1O [Van, vancomycin]
Antibiotic Resistance Phenotype [4]: R | Antibiotic Resistance Phenotype [5]: S | Antibiotic Resistance Phenotype [6]: S | Antibiotic Resistance Phenotype [7]: R | Antibiotic Resistance Phenotype [8]: S

ALYKKFKKKLLKSLKRLG [RP-1]
pH optima for microbicidal activity (a spectrum of pathogens): 7.2 pH | concentration for microbicidal activity (a spectrum of pathogens; in vitro): nanomolar concentration

H-ATKKNGRKLCLDLQAAL-OH [PMP-246-63]
pH dependence of microbicidal activity (relevant pathogens): significantly amplified at pH 5.5 as compared to pH 7.2

hNP-1: human neutrophil defensin NP-1
pH dependence of membrane permeabilization (S. aureus strain 6850; pH 7.2 vs pH 5.5): greater at pH 7.2 than at pH 5.5 | membrane permeabilization, PMP-susceptible vs PMP-resistant strain (S. aureus strain 6850; strains 6850 and JB-1 compared): equivalent | susceptibility of strain [9]: intrinsically resistant

B1: PMP-2: 74 residue rabbit platelet microbicidal protein, variant of PMP-1, analogue of rPF-4 (protein, listed as Oryctolagus cuniculus)
chain: SDDPKESEGDLHCVCVKTTSLVRPRHITNLELIKAGGHCPTANLIATKKNGRKLCLDLQAALYKKKIIKKLLES
depolarization, permeabilization and killing (S. aureus strain JB-1): significantly less | depolarization, permeabilization and killing (S. aureus strain 6850; PMP-susceptible strain 6850): rapidly depolarized, permeabilized, and killed | pH dependence of depolarization, permeabilization and killing (S. aureus strain 6850; pH 5.5 vs. pH 7.2): significantly greater at pH 5.5 vs. pH 7.2 | pH dependence of microbicidal activity (relevant pathogens): significantly greater microbicidal activity at pH 5.5 vs. 7.2 | damage of vascular endothelial cells [10]: minimal damage | susceptibility of strain [9]: as susceptible to PMP-2 as hNP-1 hypersusceptible strains 4252s and 5996s | phagocytosis of S. aureus, mean organisms/neutrophil (human neutrophils [11]): 11.2 organisms/neutrophil | S. aureus cells surviving intracellular killing (human neutrophils [12]): 23.8% | ultrastructural damage (TEM) (S. aureus): Rapid cytoplasmic membrane disruption, followed by cell wall swelling | damage of human erythrocytes (human erythrocytes): minimal damage
